Measured values taken from PubChem BioAssay AID1963977 (Molecular Pharmacology Branch, DTP, NCI, 2024).
pIC50: −log10 of the molar value.

Tested on: 624824-186-R-J3-PDC multicell spheroids, viability
Assay: Anticancer human tumor 624824-186-R-J3-PDC patient-derived colon adenocarcinoma cell line growth inhibition [PI3K]
Settings: for pIC50: curve of first compound; for viability, T/C: stronger effect = lower value
Method in brief: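 Tumor cells were combined with HUVEC and MSCs into spheroids, then dosed with PI3K-inhibitor combinations over half-log ranges capped near clinical Cmax or 10 microM.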

[1] = second compound 0.00316 µM, first compound 0.0316 µM
[2] = second compound 0.00316 µM, first compound 0.1 µM
[3] = second compound 0.01 µM, first compound 0.0316 µM
[4] = second compound 0.01 µM, first compound 0.1 µM
[5] = second compound 0.0316 µM, first compound 0.0316 µM
[6] = second compound 0.0316 µM, first compound 0.1 µM
[7] = second compound 0.1 µM, first compound 0.0316 µM
[8] = second compound 0.1 µM, first compound 0.1 µM
[9] = second compound 0.316 µM, first compound 0.0316 µM
[10] = second compound 0.316 µM, first compound 0.1 µM
[11] = second compound 1 µM, first compound 0.0316 µM
[12] = second compound 1 µM, first compound 0.1 µM
[13] = second compound 0.0316 µM, first compound 0.316 µM
[14] = second compound 0.0316 µM, first compound 1 µM
[15] = second compound 0.0316 µM, first compound 3.16 µM
[16] = second compound 0.0316 µM, first compound 10 µM
[17] = second compound 0.1 µM, first compound 0.316 µM
[18] = second compound 0.1 µM, first compound 1 µM
[19] = second compound 0.1 µM, first compound 3.16 µM
[20] = second compound 0.1 µM, first compound 10 µM
[21] = second compound 0.316 µM, first compound 0.316 µM
[22] = second compound 0.316 µM, first compound 1 µM
[23] = second compound 0.316 µM, first compound 3.16 µM
[24] = second compound 0.316 µM, first compound 10 µM
[25] = second compound 1 µM, first compound 0.316 µM
[26] = second compound 1 µM, first compound 1 µM
[27] = second compound 1 µM, first compound 3.16 µM
[28] = second compound 1 µM, first compound 10 µM
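Also: spheroids exposed to agents for seven days before luminescence read.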
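For viability, T/C in this document: luminescent signal used as a stand-in for spheroid viability; percent viability relative to DMSO vehicle control wells taken as 100%.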

Work on `CC(C)n1nc(-c2ccc3oc(N)nc3c2)c2c(N)ncnc21` + COc1c(OCCCN2CCOCC2)ccc2c3n(c(=NC(=O)c4cnc(N)nc4)nc12)CCN3 yielded a pIC50 (second compound 0.00316 µM) of less than 7.00, a pIC50 (second compound 0.01 µM) of less than 7.00 and a pIC50 (second compound 0.0316 µM) of 7.22. It also gave a pIC50 (second compound 0.1 µM) of 7.53, a pIC50 (second compound 0.316 µM) of 8.78 and a pIC50 (second compound 1 µM) greater than 9.50. The viability, T/C (second compound 0.00316 µM, first compound 0.000316 µM) was 108%, the viability, T/C (second compound 0.00316 µM, first compound 0.001 µM) was 106% and the viability, T/C (second compound 0.00316 µM, first compound 0.00316 µM) was 106%. For the same molecule, the viability, T/C (second compound 0.00316 µM, first compound 0.01 µM) was 99.2%, the viability, T/C [1] was 89.1% and the viability, T/C [2] was 52.6%. The viability, T/C (second compound 0.01 µM, first compound 0.000316 µM) was 101%, the viability, T/C (second compound 0.01 µM, first compound 0.001 µM) was 102% and the viability, T/C (second compound 0.01 µM, first compound 0.00316 µM) was 109%. For the same molecule, the viability, T/C (second compound 0.01 µM, first compound 0.01 µM) was 95.9%, the viability, T/C [3] was 82.2% and the viability, T/C [4] was 52.2%. It also gave a viability, T/C (second compound 0.0316 µM, first compound 0.000316 µM) of 97.8%, a viability, T/C (second compound 0.0316 µM, first compound 0.001 µM) of 96.7% and a viability, T/C (second compound 0.0316 µM, first compound 0.00316 µM) of 91.9%. It also gave a viability, T/C (second compound 0.0316 µM, first compound 0.01 µM) of 92.3%, a viability, T/C [5] of 63.6% and a viability, T/C [6] of 39.2%. It also gave a viability, T/C (second compound 0.1 µM, first compound 0.000316 µM) of 83.2%, a viability, T/C (second compound 0.1 µM, first compound 0.001 µM) of 80.2% and a viability, T/C (second compound 0.1 µM, first compound 0.00316 µM) of 80.2%. The viability, T/C (second compound 0.1 µM, first compound 0.01 µM) was 72.1%, the viability, T/C [7] was 48.3% and the viability, T/C [8] was 27.5%. The viability, T/C (second compound 0.316 µM, first compound 0.000316 µM) was 53.5%, the viability, T/C (second compound 0.316 µM, first compound 0.001 µM) was 48.6% and the viability, T/C (second compound 0.316 µM, first compound 0.00316 µM) was 51.1%. It also gave a viability, T/C (second compound 0.316 µM, first compound 0.01 µM) of 39.2%, a viability, T/C [9] of 31.5% and a viability, T/C [10] of 22.2%. The viability, T/C (second compound 1 µM, first compound 0.000316 µM) was 28.5%, the viability, T/C (second compound 1 µM, first compound 0.001 µM) was 28.8% and the viability, T/C (second compound 1 µM, first compound 0.00316 µM) was 31.4%. For the same molecule, the viability, T/C (second compound 1 µM, first compound 0.01 µM) was 23.9%, the viability, T/C [11] was 24.9% and the viability, T/C [12] was 18.6%.

`C=CC(=O)N1CCN(c2nc(=O)n(-c3c(C)ccnc3C(C)C)c3nc(-c4c(O)cccc4F)c(F)cc23)C(C)C1` (stereo unspecified) + Cc1nc(NC(=O)N2CCCC2C(N)=O)sc1-c1ccnc(C(C)(C)C(F)(F)F)c1 was tested, and the pIC50 (second compound 0.0316 µM) was less than 5.00, the pIC50 (second compound 0.1 µM) was less than 5.00 and the pIC50 (second compound 0.316 µM) was less than 5.00. For the same molecule, the pIC50 (second compound 1 µM) was less than 5.00, the pIC50 (second compound 3.16 µM) was less than 5.00 and the pIC50 (second compound 10 µM) was less than 5.00. The viability, T/C [5] was 103%, the viability, T/C [6] was 108% and the viability, T/C [13] was 106%. For the same molecule, the viability, T/C [14] was 94%, the viability, T/C [15] was 107% and the viability, T/C [16] was 113%. The viability, T/C [7] was 112%, the viability, T/C [8] was 101% and the viability, T/C [17] was 95.5%. The viability, T/C [18] was 110%, the viability, T/C [19] was 113% and the viability, T/C [20] was 105%. For the same molecule, the viability, T/C [9] was 109%, the viability, T/C [10] was 109% and the viability, T/C [21] was 116%. It also gave a viability, T/C [22] of 106%, a viability, T/C [23] of 103% and a viability, T/C [24] of 103%. For the same molecule, the viability, T/C [11] was 103%, the viability, T/C [12] was 108% and the viability, T/C [25] was 104%. The viability, T/C [26] was 116%, the viability, T/C [27] was 105% and the viability, T/C [28] was 101%. It also gave a viability, T/C (second compound 3.16 µM, first compound 0.0316 µM) of 83.6%, a viability, T/C (second compound 3.16 µM, first compound 0.1 µM) of 92.8% and a viability, T/C (second compound 3.16 µM, first compound 0.316 µM) of 90.9%. For the same molecule, the viability, T/C (second compound 3.16 µM, first compound 1 µM) was 78.7%, the viability, T/C (second compound 3.16 µM, first compound 3.16 µM) was 95.6% and the viability, T/C (second compound 3.16 µM, first compound 10 µM) was 78.5%. The viability, T/C (second compound 10 µM, first compound 0.0316 µM) was 68.4%, the viability, T/C (second compound 10 µM, first compound 0.1 µM) was 69% and the viability, T/C (second compound 10 µM, first compound 0.316 µM) was 71.2%. For the same molecule, the viability, T/C (second compound 10 µM, first compound 1 µM) was 76.1%, the viability, T/C (second compound 10 µM, first compound 3.16 µM) was 69.8% and the viability, T/C (second compound 10 µM, first compound 10 µM) was 65.3%.

`CC(Cn1ccc(-c2ccc(C#N)c(Cl)c2)n1)NC(=O)c1cc(C(C)O)[nH]n1` (stereo unspecified) + COc1c(OCCCN2CCOCC2)ccc2c3n(c(=NC(=O)c4cnc(N)nc4)nc12)CCN3 gave a pIC50 (second compound 0.00316 µM) of less than 5.00, a pIC50 (second compound 0.01 µM) of less than 5.00 and a pIC50 (second compound 0.0316 µM) of less than 5.00. The pIC50 (second compound 0.1 µM) was less than 5.00, the pIC50 (second compound 0.316 µM) was 6.62 and the pIC50 (second compound 1 µM) was greater than 7.50. The viability, T/C [1] was 106%, the viability, T/C [2] was 98.6% and the viability, T/C (second compound 0.00316 µM, first compound 0.316 µM) was 101%. The viability, T/C (second compound 0.00316 µM, first compound 1 µM) was 96.3%, the viability, T/C (second compound 0.00316 µM, first compound 3.16 µM) was 103% and the viability, T/C (second compound 0.00316 µM, first compound 10 µM) was 98.2%. For the same molecule, the viability, T/C [3] was 101%, the viability, T/C [4] was 93.2% and the viability, T/C (second compound 0.01 µM, first compound 0.316 µM) was 98.2%. It also gave a viability, T/C (second compound 0.01 µM, first compound 1 µM) of 103%, a viability, T/C (second compound 0.01 µM, first compound 3.16 µM) of 108% and a viability, T/C (second compound 0.01 µM, first compound 10 µM) of 105%. The viability, T/C [5] was 96.6%, the viability, T/C [6] was 97.4% and the viability, T/C [13] was 87.3%. For the same molecule, the viability, T/C [14] was 95.6%, the viability, T/C [15] was 91.9% and the viability, T/C [16] was 84.5%. It also gave a viability, T/C [7] of 74.5%, a viability, T/C [8] of 79.9% and a viability, T/C [17] of 78%. For the same molecule, the viability, T/C [18] was 76.6%, the viability, T/C [19] was 77% and the viability, T/C [20] was 68.7%. It also gave a viability, T/C [9] of 54.6%, a viability, T/C [10] of 50.1% and a viability, T/C [21] of 49.8%. It also gave a viability, T/C [22] of 48.2%, a viability, T/C [23] of 40.9% and a viability, T/C [24] of 38.8%. For the same molecule, the viability, T/C [11] was 26.9%, the viability, T/C [12] was 28.1% and the viability, T/C [25] was 28.3%. It also gave a viability, T/C [26] of 28.2%, a viability, T/C [27] of 24.9% and a viability, T/C [28] of 23.6%.
